Data from article PMC8217813, “Bridging Computational Vaccinology and Vaccine Development Through Systematic Identification, Characterization, and Downselection of Conserved and Variable Circumsporozoite Protein CD4 T Cell Epitopes From Diverse Plasmodium falciparum Strains” (Frontiers in Immunology, 2021).
pIC50: −log10 of the molar value. Peptide text beside a SMILES is read from it.

Columns and labels:
HLA-DRB1*0401 = molecular target: T1, HLA-DRB1*0401 (Homo sapiens, UniProt P01903+P01911, A100K/A169T/F76Y/I96L/K127E/L162R/M171V/N62H/P40V/Q125Y/R42H/S133A/S149N/S66Y/V115G/V209L/W38E); experiment: In vitro class II HLA binding competition assay; conditions: competition with fluorescent-labeled reference peptide, class II HLA monomers, 24-hours, test peptide 100,000 nM to 100 nM, time-resolved fluorescence; read-out: IC50, DRB1*0401
T1 construct: purchased
Procedure: (§1) EpiVax conducted in vitro quantification of peptide-HLA binding affinity utilizing a competition assay format per the methodology described in ([35]). Briefly, a fluorescent-labeled, high-binding reference peptide and titrating concentrations of test peptide were incubated in a 96-well plate format with limiting concentrations of class II HLA monomers in aqueous buffer for 24-hours. Post incubation, the mixtures were moved to a 96-well plate coated with anti-HLA-DR antibody to capture HLA-peptide complexes. Time-resolved fluorescence measurement of the bound labeled reference peptide complex present in each mixture were detected with a europium-linked probe via fluorescent spectrophotometry using a SpectraMax M5 system. HLA binding affinity of each test peptide was expressed as the percent inhibition of reference peptide binding. Percent inhibition values (across the test peptide titration range) were used to calculate the half maximal inhibitory concentration (IC50) of each test peptide. For these studies, test peptides were assessed using a range of final concentrations from 100,000 nM to 100 nM and all peptides were reconstituted in dimethyl sulfoxide (DMSO).

HLA-DRB1*0801 = HLA-DRB1*0801 (Homo sapiens, UniProt P01903+P01911, A100R/A103L/A169T/D86S/F76Y/H45Y/I96F/K41T/L162R/M171V/P40S/Q125H/Q178H/Q39Y/Q99D/R218S/R42G/S66Y/V115G/W38E); experiment: In vitro class II HLA binding competition assay; conditions: competition with fluorescent-labeled reference peptide, class II HLA monomers, 24-hours, test peptide 100,000 nM to 100 nM, time-resolved fluorescence
Procedure: as §1

HLA-DRB1*1101 = molecular target: T2, HLA-DRB1*1101 (Homo sapiens, UniProt P01903+P01911, A100R/A169T/A87E/I96F/K41T/L162R/M171V/P40S/Q125H/Q178H/Q39Y/Q99D/R42S/S66Y/T262R/V115G/W38E); experiment: In vitro class II HLA binding competition assay; conditions: competition with fluorescent-labeled reference peptide, class II HLA monomers, 24-hours, test peptide 100,000 nM to 100 nM, time-resolved fluorescence
T2 construct: purchased
Procedure: as §1

HLA-DRB1*1301 = HLA-DRB1*1301 (Homo sapiens, UniProt P01903+P01911, A100E/A169T/K41T/L162R/M171V/P40S/Q125H/Q178H/Q39Y/Q99D/R42S/S66N/T262R/W38E/Y61H); experiment: In vitro class II HLA binding competition assay; conditions: competition with fluorescent-labeled reference peptide, class II HLA monomers, 24-hours, test peptide 100,000 nM to 100 nM, time-resolved fluorescence
Procedure: as §1

[1] = test system: CD4 T cells co-cultured with autologous DCs from PBMCs; type: cell-based, human; conditions: positive = Stimulation Index ≥1.5-fold above baseline, 5 µg/mL peptide

CC(=O)N[C@@H](CCCCN)C(=O)N[C@@H](CCC(N)=O)C(=O)N[C@@H](CCC(=O)O)C(=O)N[C@@H](CC(N)=O)C(=O)N[C@@H](Cc1c[nH]c2ccccc12)C(=O)N[C@@H](Cc1ccc(O)cc1)C(=O)N[C@@H](CO)C(=O)N[C@@H](CC(C)C)C(=O)N[C@@H](CCCCN)C(=O)N[C@@H](CCCCN)C(=O)N[C@@H](CC(N)=O)C(=O)N[C@@H](CO)C(=O)N[C@@H](CCCNC(=N)N)C(=O)N[C@@H](CO)C(=O)N[C@@H](CC(C)C)C(=O)NCC(=O)N[C@@H](CCC(=O)O)C(=O)N[C@@H](CC(N)=O)C(=O)N[C@@H](CC(=O)O)C(N)=O [Cluster C2] (Ac-KQENWYSLKKNSRSLGEND-NH2)
pIC50 (HLA-DRB1*0401): 4.97
pIC50 (HLA-DRB1*0801): 6.97
pIC50 (HLA-DRB1*1101): 6.40
pIC50 (HLA-DRB1*1301): 7.43
Percentage of donors demonstrating IFN-γ responses, DR1 ([1]; DR1 donors N=5, ICCS after 14-day co-culture): 20%
Percentage of donors demonstrating IL-2 responses, DR1 ([1]; DR1 donors N=5, ICCS): 0%
Percentage of donors demonstrating IL-4 responses, DR1 ([1]; DR1 donors N=5, ICCS): 40%
Percentage of donors demonstrating IL-10 responses, DR1 ([1]; DR1 donors N=5, ICCS): 20%
Percentage of donors demonstrating TNF-α responses, DR1 ([1]; DR1 donors N=5, ICCS): 0%
Percentage of donors demonstrating IFN-γ responses, DR3 ([1]; DR3 donors N=6, ICCS after 14-day co-culture): 33%
Percentage of donors demonstrating IL-2 responses, DR3 ([1]; DR3 donors N=6, ICCS): 0%
Percentage of donors demonstrating IL-4 responses, DR3 ([1]; DR3 donors N=6, ICCS): 0%
Percentage of donors demonstrating IL-10 responses, DR3 ([1]; DR3 donors N=6, ICCS): 50%
Percentage of donors demonstrating TNF-α responses, DR3 ([1]; DR3 donors N=6, ICCS): 0%
Percentage of donors demonstrating IFN-γ responses, DR4 ([1]; DR4 donors N=10, ICCS after 14-day co-culture): 0%
Percentage of donors demonstrating IL-2 responses, DR4 ([1]; DR4 donors N=10, ICCS): 0%
Percentage of donors demonstrating IL-4 responses, DR4 ([1]; DR4 donors N=10, ICCS): 10%
Percentage of donors demonstrating IL-10 responses, DR4 ([1]; DR4 donors N=10, ICCS): 10%
Percentage of donors demonstrating TNF-α responses, DR4 ([1]; DR4 donors N=10, ICCS): 0%
Percentage of donors demonstrating IFN-γ responses, DR7 ([1]; DR7 donors N=4, ICCS after 14-day co-culture): 0%
Percentage of donors demonstrating IL-2 responses, DR7 ([1]; DR7 donors N=4, ICCS): 0%
Percentage of donors demonstrating IL-4 responses, DR7 ([1]; DR7 donors N=4, ICCS): 25%
Percentage of donors demonstrating IL-10 responses, DR7 ([1]; DR7 donors N=4, ICCS): 50%
Percentage of donors demonstrating TNF-α responses, DR7 ([1]; DR7 donors N=4, ICCS): 0%
Percentage of donors demonstrating IFN-γ responses, DR8 ([1]; DR8 donors N=4, ICCS after 14-day co-culture): 0%
Percentage of donors demonstrating IL-2 responses, DR8 ([1]; DR8 donors N=4, ICCS): 0%
Percentage of donors demonstrating IL-4 responses, DR8 ([1]; DR8 donors N=4, ICCS): 0%
Percentage of donors demonstrating IL-10 responses, DR8 ([1]; DR8 donors N=4, ICCS): 25%
Percentage of donors demonstrating TNF-α responses, DR8 ([1]; DR8 donors N=4, ICCS): 0%
Percentage of donors demonstrating IFN-γ responses, DR9 ([1]; DR9 donors N=4, ICCS after 14-day co-culture): 25%
Percentage of donors demonstrating IL-2 responses, DR9 ([1]; DR9 donors N=4, ICCS): 0%
Percentage of donors demonstrating IL-4 responses, DR9 ([1]; DR9 donors N=4, ICCS): 25%
Percentage of donors demonstrating IL-10 responses, DR9 ([1]; DR9 donors N=4, ICCS): 25%
Percentage of donors demonstrating TNF-α responses, DR9 ([1]; DR9 donors N=4, ICCS): 0%
Percentage of donors demonstrating IFN-γ responses, DR11 ([1]; DR11 donors N=4, ICCS after 14-day co-culture): 0%
Percentage of donors demonstrating IL-2 responses, DR11 ([1]; DR11 donors N=4, ICCS): 0%
Percentage of donors demonstrating IL-4 responses, DR11 ([1]; DR11 donors N=4, ICCS): 0%
Percentage of donors demonstrating IL-10 responses, DR11 ([1]; DR11 donors N=4, ICCS): 0%
Percentage of donors demonstrating TNF-α responses, DR11 ([1]; DR11 donors N=4, ICCS): 0%
Percentage of donors demonstrating IFN-γ responses, DR13 ([1]; DR13 donors N=7, ICCS after 14-day co-culture): 0%
Percentage of donors demonstrating IL-2 responses, DR13 ([1]; DR13 donors N=7, ICCS): 0%
Percentage of donors demonstrating IL-4 responses, DR13 ([1]; DR13 donors N=7, ICCS): 0%
Percentage of donors demonstrating IL-10 responses, DR13 ([1]; DR13 donors N=7, ICCS): 29%
Percentage of donors demonstrating TNF-α responses, DR13 ([1]; DR13 donors N=7, ICCS): 0%
Percentage of donors demonstrating IFN-γ responses, DR15 ([1]; DR15 donors N=7, ICCS after 14-day co-culture): 29%
Percentage of donors demonstrating IL-2 responses, DR15 ([1]; DR15 donors N=7, ICCS): 0%
Percentage of donors demonstrating IL-4 responses, DR15 ([1]; DR15 donors N=7, ICCS): 0%
Percentage of donors demonstrating IL-10 responses, DR15 ([1]; DR15 donors N=7, ICCS): 14%
Percentage of donors demonstrating TNF-α responses, DR15 ([1]; DR15 donors N=7, ICCS): 0%
